From patent US20230106592A1, “METHOD FOR TREATING CANCER USING A COMBINATION OF DNA DAMAGING AGENTS AND ATR INHIBITORS” (Vertex Pharmaceuticals Incorporated, priority 2015, published 2023)

What was measured:
[1] = test system: advanced solid tumors; assay: Phase I trial, combination with carboplatin: RECIST response and PFS; format: in vivo, human
Description: (§1) Pts with advanced solid tumors enrolled in 2 sequential parts.
(§2) In part A, single pt cohorts received a compound of Formula A-2 once weekly in 21-day cycles with 3+3 dose escalation cohorts being implemented if grade 2 drug-related adverse events (AEs) occurred. […] If a DLT was reported, the cohort was expanded to include 3 additional pts with subsequent dose escalation being permitted if no further DLTs occurred. Paired pre- and post-treatment biopsies from selected pts in part B were assessed for pCHK1 levels by immunohistochemistry. Models based on preclinical and clinical data were used to simulate hematologic toxicities and pCHK1 inhibition for pts treated with a compound of Formula A-2 and CP.

[2] = Phase I trial, combination with gemcitabine: adverse events and DLTs
Description: Fifty (50) pts (28 males and 22 females) of median age, 62 yrs (range 28-79 yrs), with Eastern Cooperative Oncology Group (ECOG) performance status 0/1:15/35 were treated. Primary tumors included non-small cell lung (NSCLC; n=6), pancreatic (n=2), breast (n=4), colorectal (n=15), head and neck (n=1), and other/missing (n=22).

[3] = test system: advanced solid tumors; assay: Phase I trial, monotherapy: RECIST antitumor response; format: in vivo, human
Description: as §1
Eleven of the subjects were given a once weekly dosage of Compound A-2 as a monotherapy. Six of the subjects were given a twice weekly dosage of Compound A-2 as a monotherapy. […] DLTs were defined according to the National Cancer Institute (NCI) CTCAE (Version 4).
as §2

[4] = Phase I trial, combination with gemcitabine: pharmacokinetics; format: in vivo, human; conditions: combination with gem
Description: Grade 3/4 treatment-related adverse events (AEs) occurred in 25 pts. DLTs occurred in 4 pts: 2 pts in DL4 (grade 3 thrombocytopenia; grade 3 elevated ALT and fatigue); 1 pt in DL5 (grade 3 elevated AST); 1 pt in DL6, (grade 3 elevated AST, ALT and grade 2 elevated ALP). The maximum tolerated dose was not reached but dose escalation was stopped at DL10 per investigator recommendation. […] The primary tumors in these four patients were breast cancer, head and neck cancer, NSCLC, and carcinoma of unknown primary origin. A pt with breast cancer in DL8 achieved PR at the 1st assessment and the pt remains on trial >133 days. Two (2) pts had prolonged stable disease (SD) responses. The tumor response and duration of progression free survival (PFS) are shown in FIGS. 16 and 17, respectively. For many patients, the duration of PFS extended beyond the 12-week primary endpoint. […] Progression-free survival (PFS) of 415 days in 1 patient with renal cancer(papillary carcinoma) and >191 days (pt with GIST) were observed.

## CNCc1ccc(-c2cc(-c3nc(-c4ccc(S(=O)(=O)C(C)C)cc4)cnc3N)on2)cc1 [Compound A-2]
[1]; Subject 1, Ovarian, Compound A-2 120 mg/m^2 + carboplatin AUC 5 mg/mL·min
  PFS (progression-free survival): 175 days
[1]; Subject 2, Ovarian, Compound A-2 90 mg/m^2 + carboplatin AUC 5 mg/mL·min
  PFS (progression-free survival): 176 days
[1]; Subject 3, Breast, Compound A-2 90 mg/m^2 + carboplatin AUC 5 mg/mL·min
  PFS (progression-free survival): 67 days
[1]; part B with CP (n=1)
  Best response: partial response
[1]; platinum and antimetabolite refractory high grade serous ovarian cancer subject, carboplatin AUC 5 day 1, Compound A-2 90 mg/m^2 days 2 and 9
  RECIST response: partial response
[1]; refractory ovarian cancer subject, carboplatin AUC 5 + Compound A-2 90 mg/m^2, ongoing
  Duration of RECIST partial response: more than 6 months
[2]; DL4: 72 mg/m^2 + gem 875 mg/m^2, grade 3 thrombocytopenia, grade 3 elevated ALT and fatigue
  DLTs: 2 pts
[2]; DL5: 90 mg/m^2 + gem 500 mg/m^2, grade 3 elevated AST
  DLTs: 1 pt
[2]; DL6: 140 mg/m^2 + gem 500 mg/m^2, grade 3 elevated AST, ALT and grade 2 elevated ALP
  DLTs: 1 pt
[2]; all DLs, 50 pts
  DLTs: 4 pts
[2]; combination with gem
  Cumulative toxicity: No cumulative toxicity
[2]; combination with gem, up to DL10
  Maximum tolerated dose: not reached
[2]; gem days 1 and 8, Compound A-2 days 2 and 9, 50 pts
  Grade 3/4 treatment-related adverse events (AEs): 25 pts
[3]; advanced colorectal cancer pt with complete ATM loss, monotherapy 60 mg/m^2 weekly
  RECIST response: complete response
[3]; colorectal cancer pt with complete response, monotherapy 60 mg/m^2
  Time on trial: ≥ 59 wks
[3]; colorectal cancer subject, monotherapy 60 mg/m^2 weekly, ongoing
  Duration of RECIST complete response: more than 28 months
[3]; monotherapy, 4 pts
  Median duration of SD: 11 wks
[3]; part A monotherapy (n=1)
  Best response: complete response
[4]; both sexes, human, in vivo, intravenous, across DLs, read-out: Terminal elimination half-life (converted)
  half-life: ~16 h
[4]
  Exposure based on Cmax and AUC0-∞: relatively linear
